Experiments:
[1] = same conditions as naltrexone; cited from earlier work
[2] = reported to be as low as; Gonzalez and Brogden 1988; cited from earlier work
[3] = Safety assessments (adverse events, vital signs, ECG, nasal irritation) in the clinical study; format: in vivo, human
Description: On dosing days, the order of assessments was ECG, vital signs, then PK blood collection when scheduled at the same nominal times. The target time of the PK blood collection was considered the most critical and if the collection was more than ±1 minute from the scheduled time for the first 60 minutes of collections or more than ±5 minutes for the scheduled time points thereafter, this was considered a protocol deviation. ECG and vital signs were collected within the 10-minute period before the nominal time of blood collections. At screening, admission, and discharge, ECG, and vital signs were checked once per day. […] Clinical laboratory measurements were repeated after the last PK blood draw prior to clinic discharge. AEs were assessed by spontaneous reports by subjects, by examination of the nasal mucosa, by measuring vital signs, ECG, and clinical laboratory parameters.
Safety Assessments. […] ECG and vital signs were performed within the 10-minute period before the nominal time for post-dose blood collections. Adverse events (AEs) were recorded from the start of study drug administration until clinic discharge.

[4] = Clinical pharmacokinetic crossover study of IN, IM and oral naltrexone; plasma naltrexone and 6β-naltrexol by LC-MS/MS; details: 4 mg IN; 5 minutes postdose
Text: Study Goals. […] Secondary endpoints included adverse events (AEs), vital signs (heart rate, sitting blood pressure, and respiration rate), electrocardiogram (ECG), clinical laboratory changes and nasal irritation using the nasal irritation scale.
Study design. […] This was an in-patient open-label, crossover study involving approximately 14 healthy volunteers. […] Subjects stayed in the in-patient facility for 13 days to complete the entire study. Subjects were called 3 to 5 days after discharge to inquire concerning AEs and concomitant medications since discharge. Informed consent was obtained from all subjects, and all were screened for eligibility to participate in the study, including medical history, physical examination, clinical chemistry, coagulation markers, hematology, infectious disease serology, urinalysis, urine drug and alcohol toxicology screen, vital signs and ECG.
On days of study drug administration, a 12-lead ECG was performed approximately 1 hour prior to dosing and at approximately 1 and 4 hours post-dose. Vital signs were measured pre-dose and about 1 and 4 hours post-dose.
Study Drugs and Dosing. […] The IN (40 mg/mL) formulations were made by the staff pharmacist at Vince & Associates; the vehicle for the IN formulations was sterile water for injection. The IM formulation (2 mg/mL) was made by the staff pharmacist at Vince & Associates; the vehicle was sterile saline for injection.
Subjects stayed in the in-patient facility for 13 days to complete the entire study and were discharged 2 days after the fourth dose.
PK Assessments. […] Plasma was separated from whole blood and stored frozen at […] until assayed.
Analysis. […] Dose-adjusted values for AUCs and Cmax were calculated. The relative extent of IN and PO absorption (IN and PO versus IM) will be estimated from the dose-corrected AUCs.

[5] = intranasal formulation with […] Intravail; cited from earlier work

C=C1CC[C@@]2(O)[C@H]3Cc4ccc(O)c5c4[C@@]2(CCN3CC2CC2)[C@H]1O5 [nalmefene, 17-cyclopropylmethyl-4,5α-epoxy-6-methylenemorphinan-3,14-diol]
Change of AUC when an alkylsaccharide is added to the intranasal formulation [1]: do not have increased AUC

O=C1CC[C@@]2(O)[C@H]3Cc4ccc(O)c5c4[C@@]2(CCN3CC2CC2)[C@H]1O5 [naltrexone, 17-(cyclopropylmethyl)-4,5a-epoxy-3,14-dihydroxymorphinan-6-one]
Oral bioavailability [2]: 5%
Subjects with dizziness (most frequent AE regardless of severity or attribution) ([3]; 5 subjects of 14): 36%
Subjects with AEs of the Nervous System Disorders SOC (most frequent AEs) ([3]; 7 subjects of 14): 50%
Severe AEs ([3]; all dosing periods): No severe AEs were observed
Moderate AEs ([3]; dizziness after the first dose (4 mg IN), considered related to the study agent): one
Subjects discontinued from the study due to AEs ([3]; hypertension, syncope, out-of-range pre-dose vital signs): Three
Treatment-related unexpected AE ([3]; mild syncope after the Day 1 dose (4 mg IN)): one
Subjects who experienced at least one AE ([3]; safety population, 10 of 14 subjects, any dosing period, any relationship to drug): 71%
Subjects who experienced unexpected AEs ([3]; two UAEs considered unrelated to the study agent): Three
Difference of mean naltrexone concentrations with and without Intravail [4]: 8 fold

CNS(=O)(=O)Cc1ccc2[nH]cc(CCN(C)C)c2c1 [sumatriptan]
Increase of maximum plasma concentration in comparison to Imitrex nasal spray [5]: almost four-fold
Increase of total exposure (AUC) [5]: 32%
Tmax [5]: 8 to 10 min

— patent publication US20210077382A1, “COMPOSITIONS, DEVICES, AND METHODS FOR THE TREATMENT OF OPIOID-RECEPTOR-MEDIATED CONDITIONS” (Opiant Phamaceuticals, Inc., priority 2016, published 2021)
